Test results reported in patent US7169932B2 (priority 2001, dated 2007).
Like-named read-outs stand apart in the source and are kept apart here.

Target: T1, HIV-1 protease (Q7S) (Human immunodeficiency virus type 1 group M subtype B, UniProt P04585, Q495S)
T1 construct: made in house
Experiment: HIV-1 Protease RET Assay
Type: biochemical
Description: Ki's for the inhibitors of HIV-1 protease were determined using a resonance energy transfer (RET) assay. […] This enzyme is first partially purified as inclusion bodies from cell lysate. It is then solublized in 8M urea and passed through a Q-Sepharose column (Pharmacia) for further purification. To refold this protein, samples containing Q7S is dialyzed into 50 mM sodium phosphate pH 7.0, 50 mM NaCl, 10 mM DTT, and 10% glycerol.
The commercially available peptide substrate (Molecular Probes Cat. # H-2930) RE(EDANS)SQNYPIVQK(DABCYL)R is used to assess activity and Ki's. This peptide is cleaved quantitatively by HIV-1 Pr at the Tyr-Pro bond. The EDANS fluorophore absorbs at 340 nm and emits at 490 nm. The reaction is carried out in a 96 well plate in a total volume of 100 μL and is run for 12 minutes at 37 C under steady-state conditions with 5 μM substrate and 2 nM active dimer enzyme concentration. The literature value Km for this substrate and enzyme is 103+/−8 μM (See Matayoshi, et al., “Novel Fluorogenic Substrates for Assaying Retroviral Proteases by Resonance Energy Transfer,” Science 247, 954 (1990)). The buffer for this reaction is 0.1M sodium acetate pH 4.8, 1M NaCl, 1 mM EDTA, 5 mM dithiothreitol, 10% dimethyl sulfoxide and 1 mg/ml bovine serum albumin. Inhibition curves are fit using the Morrison tight binding equation.

[1] = Ki, table of drawn compounds, unit inferred
[2] = RET assay, Q7S enzyme, pH 4.8, 37 C, read-out: Ave. Ki
[3] = Ave. Ki (nM), RET assay, Q7S enzyme, pH 4.8, 37 C

In the case of Cc1c(O)cccc1C(=O)N[C@@H](Cc1ccccc1)[C@H](O)C(=O)N1CSC(C)(C)[C@H]1C(=O)NCc1cccc(C(F)(F)F)c1F, the Ki [1] is reported as 62 nM.

In the case of Cc1ccccc1CNC(=O)[C@H]1N(C(=O)[C@@H](O)[C@H](Cc2ccccc2)NC(=O)c2cccnc2Cl)CSC1(C)C, the Ki [1] is reported as 0.75 nM.

For COc1cccc(C(=O)[C@H]2N(C(=O)[C@@H](O)[C@H](Cc3ccccc3)NC(=O)c3cccc(O)c3C)CSC2(C)C)c1, the Ki [1] was 7.4 nM.

With Cc1ccccc1CNC(=O)[C@H]1N(C(=O)[C@@H](O)[C@H](Cc2ccccc2)NC(=O)C2=CCCC2)CSC1(C)C the Ki [1] was 3.4 nM.

Work on Cc1ccccc1CNC(=O)[C@H]1N(C(=O)[C@@H](O)[C@H](Cc2ccccc2)NC(=O)Cc2c(F)cccc2F)CSC1(C)C yielded a Ki (table of drawn compounds, unit inferred, read-out: Ki) of 72 nM.

For Cc1ccccc1CNC(=O)[C@H]1N(C(=O)[C@@H](O)[C@H](Cc2ccccc2)NC(=O)C2CCCC2)CSC1(C)C, the Ki [1] was 12.1 nM.

Work on Cc1c(O)cccc1C(=O)N[C@@H](Cc1ccccc1)[C@H](O)C(=O)N1CSC(C)(C)C1C(=O)NCCc1ccc(O)cc1 (stereo partly shown) yielded a Ki [1] of 13.1 nM.

Compound Cc1c(O)cccc1C(=O)N[C@@H](Cc1ccccc1)[C@H](O)C(=O)N1CSC(C)(C)[C@H]1C(=O)NCC(C)C has a Ki [1] of at most 0.1 nM.

CCC(C)CNC(=O)[C@H]1N(C(=O)[C@@H](O)[C@H](Cc2ccccc2)NC(=O)c2cccc(O)c2C)CSC1(C)C (stereo partly shown) showed a Ki [1] of at most 0.1 nM.

Work on Cc1c(O)cccc1C(=O)N[C@@H](Cc1ccccc1)[C@H](O)C(=O)N1CSC(C)(C)[C@H]1C(=O)NCc1ccc2c(c1)OCO2 [Example A22, 3-((2S,3S)-2-Hydroxy-3-{[1-(3-hydroxy-2-methyl-phenyl)-methanoyl]-amino}-4-phenyl-butanoyl)-5,5-dimethyl-thiazolidine-4-carboxylic acid (benzo[1,3]dioxol-5-ylmethyl)-amide] yielded a Ki [2] of 0.32 nM.

With Cc1c(O)cccc1C(=O)N[C@@H](Cc1ccccc1)[C@H](O)C(=O)N1CSC(C)(C)[C@H]1C(=O)NCc1ccc2c(c1)OC(F)(F)O2 [Example A48, (R)-3-((2S,3S)-2-Hydroxy-3-{[1-(3-hydroxy-2-methyl-phenyl)-methanoyl]-amino}-4-phenyl-butanoyl)-5,5-dimethyl-thiazolidine-4-carboxylic acid (2,2-difluoro-benzo[1,3]dioxol-5-ylmethyl)-amide] the Ki [2] was 0.19 nM.

CNCCNC(=O)[C@H]1N(C(=O)[C@@H](O)[C@H](Cc2ccccc2)NC(=O)c2cccc(O)c2C)CSC1(C)C [Example A52, 3-((2S,3S)-2-Hydroxy-3-{[1-(3-hydroxy-2-methyl-phenyl)-methanoyl]-amino}-4-phenyl-butanoyl)-5,5-dimethyl-thiazolidine-4-carboxylic acid (2-methylamino-ethyl)-amide] showed a Ki [3] of 37 nM.

Work on Cc1ccccc1CNC(=O)[C@H]1N(C(=O)[C@@H](O)[C@H](Cc2ccccc2)NC(=O)N2CC[C@@H](O)C2)CSC1(C)C [Example B1, 3-(2-hydroxy-3-{[1-(3-hydroxy-pyrrolidin-yl)-methanoyl]-amino}-4-phenyl-butanoyl)-5,5-dimethyl-thiazolidine-4-carboxylic acid-2-methyl-benzylamide] yielded a Ki [2] of 2.5 nM.

In the case of Cc1noc(C)c1C(=O)NC(Cc1ccccc1)C(O)C(=O)N1CSC(C)(C)C1C(=O)NCc1ccccc1C(F)(F)F (stereo not shown) [Example B27, 3,5-Dimethyl-isoxazole-4-carboxylic acid {1-benzyl-3-[5,5-dimethyl-4-(2-trifluoromethyl-benzylcarbamoyl)-thiazolidin-3-yl]-2-hydroxy-3-oxo-propyl}-amide], the Ki [3] is reported as 3.5 nM.

Compound COc1cccc(CNC(=O)[C@H]2N(C(=O)[C@@H](O)[C@H](Cc3ccccc3)NC(=O)c3cccc(F)c3C)CSC2(C)C)c1 [Example B32, (R)-3-((2S,3S)-3-{[1-(3-Fluoro-2-methyl-phenyl)-methanoyl]-amino}-2-hydroxy-4-phenyl-butanoyl)-5,5-dimethyl-thiazolidine-4-carboxylic acid 3-methoxy-benzylamide] has a Ki [3] of 4.9 nM.

Compound Cc1ccccc1CNC(=O)[C@H]1N(C(=O)[C@@H](O)[C@H](Cc2ccccc2)NC(=O)c2ccc(O)cc2C)CSC1(C)C [Example B39, (R)-3-[(2S,3S)-2-Hydroxy-3-(4-hydroxy-2-methyl-benzoylamino)-4-phenyl-butyryl]-5,5-dimethyl-thiazolidine-4-carboxylic acid 2-methyl-benzylamide] has a Ki [3] of 0.16 nM.

For Cc1ccccc1CNC(=O)[C@H]1N(C(=O)[C@@H](O)[C@H](Cc2ccccc2)NC(=O)c2ccnc(Cl)c2Cl)CSC1(C)C [Example B41, {(1S,2S)-1-Benzyl-3-[(R)-5,5-dimethyl-4-(2-methyl-benzylcarbamoyl)-thiazolidin-3-yl]-2-hydroxy-3-oxo-propyl}-2,3-dichloro-isonicotinamide], the Ki [3] was 0.15 nM.

For Cc1ccccc1CNC(=O)[C@H]1N(C(=O)[C@@H](O)[C@H](Cc2ccccc2)NC(=O)c2ccncc2Cl)CSC1(C)C [Example B42, {(1S,2S)-1-Benzyl-3-[(R)-5,5-dimethyl-4-(2-methyl-benzylcarbamoyl)-thiazolidin-3-yl]-2-hydroxy-3-oxo-propyl}-3-chloro-isonicotinamide], the Ki [3] was 0.73 nM.

Cc1cc(O)c(C)c(C(=O)N[C@@H](Cc2ccccc2)[C@H](O)C(=O)N2CSC(C)(C)[C@H]2C(=O)NCc2ccccc2C)c1 [Example B43, (R)-3-[(2S,3S)-2-Hydroxy-3-(3-hydroxy-2,5-dimethyl-benzoylamino)-4-phenyl-butyryl]-5,5-dimethyl-thiazolidine-4-carboxylic acid 2-methyl-benzylamide] was tested, and the Ki [3] was 0.2 nM.

Cc1ccccc1CNC(=O)C1N(C(=O)[C@@H](O)[C@H](Cc2ccccc2)NC(=O)c2ccccn2)CSC1(C)C (stereo partly drawn) [Example B45, Pyridine-2-carboxylic acid {(1S,2S)-1-benzyl-3-[5,5-dimethyl-4-(2-methyl-benzylcarbamoyl)-thiazolidin-3-yl]-2-hydroxy-3-oxo-propyl}-amide] gave a Ki [3] of 19.7 nM.

In the case of Cc1ccccc1CNC(=O)C1N(C(=O)[C@@H](O)[C@H](Cc2ccccc2)NC(=O)c2ccc(O)cn2)CSC1(C)C (stereo partly drawn) [Example B46, Pyridine-2–5-hydroxy-carboxylic acid{(1S,2S)-1-benzyl-3-[5,5-dimethyl-4-(2-methyl-benzylcarbamoyl)-thiazolidin-3-yl]-2-hydroxy-3-oxo-propyl}-amide], the Ki [2] is reported as 12.5 nM.

Cc1ccccc1CNC(=O)[C@H]1N(C(=O)[C@@H](O)[C@H](Cc2ccccc2)NC(=O)c2cccnc2)CSC1(C)C [Example B47, N-{(1S,2S)-1-Benzyl-3-[5,5-dimethyl-4-(2-methyl-benzylcarbamoyl)-thiazolidin-3-yl]-2-hydroxy-3-oxo-propyl}-nicotinamide] showed a Ki [3] of 6.9 nM.

C=CCNC(=O)[C@H]1N(C(=O)[C@@H](O)[C@H](Cc2ccccc2)NC(=O)c2cccnc2C)CSC1(C)C [Example B49, N-[(1S,2S)-3-(4-Allylcarbamoyl-5,5-dimethyl-thiazolidin-3-yl)-1-benzyl-2-hydroxy-3-oxo-propyl]-2-methyl-nicotinamide] was tested, and the Ki [3] was 17.2 nM.

Cc1ccccc1CNC(=O)[C@@H]1CC(F)(F)CN1C(=O)[C@@H](O)[C@H](Cc1ccccc1)NC(=O)c1cccc(O)c1C [Example C1, (S)-4,4-Difluoro-1-[(2S,3S)-2-hydroxy-3-(3-hydroxy-2-methyl-benzoylamino)-4-phenyl-butyryl]-pyrrolidine-2-carboxylic acid 2-methyl-benzylamide.] showed a Ki [2] of 0.38 nM.

Cc1ccccc1CNC(=O)[C@@H]1[C@@H](C)OCN1C(=O)[C@@H](O)[C@H](Cc1ccccc1)NC(=O)c1cccc(O)c1C [Example C5, (4S,5R)-3-((2S,3S)-2-Hydroxy-3-{[1-(3-hydroxy-2-methyl-phenyl)-methanoyl]-amino}-4-phenyl-butanoyl)-5-methyl-oxazolidine-4-carboxylic acid 2-methyl-benzylamide] showed a Ki [3] of 3.2 nM.

CCCNC(=O)[C@H]1N(C(=O)[C@@H](O)[C@H](Cc2ccccc2)NC(=O)c2cccc(O)c2C)COC1(C)C [Example C7, (S)-3-((2S,3S)-2-Hydroxy-3-{[1-(3-hydroxy-2-methyl-phenyl)-methanoyl]-amino}-4-phenyl-butanoyl)-5,5-dimethyl-oxazolidine-4-carboxylic acid propylamide] showed a Ki [3] of 7.9 nM.

Cc1c(O)cccc1C(=O)N[C@@H](Cc1ccccc1)[C@H](O)C(=O)N1COC(C)(C)[C@H]1C(=O)NCC#N [Example C10, (S)-3-((2S,3S)-2-Hydroxy-3-{[1-(3-hydroxy-2-methyl-phenyl)-methanoyl]-amino}-4-phenyl-butanoyl)-5,5-dimethyl-oxazolidine-4-carboxylic acid cyanomethyl-amide] showed a Ki [3] of 36 nM.

In the case of C=CCCC(=O)[C@H]1N(C(=O)[C@@H](O)[C@H](Cc2ccccc2)NC(=O)c2cccc(O)c2C)CSC1(C)C [Example D1, N-[(1S,2S)-1-Benzyl-3-((R)-5,5-dimethyl-4-pent-4-enoyl-thiazolidin-3-yl)-2-hydroxy-3-oxo-propyl]-3-hydroxy-2-methyl-benzamide], the Ki [2] is reported as under 0.01 nM.
